Structures can show the parent of a compound that is named as a salt.

In the first assay the target is T1, IRAK4 (Homo sapiens, UniProt Q9NWZ3).
T1 sequence (Q9NWZ3 1-460): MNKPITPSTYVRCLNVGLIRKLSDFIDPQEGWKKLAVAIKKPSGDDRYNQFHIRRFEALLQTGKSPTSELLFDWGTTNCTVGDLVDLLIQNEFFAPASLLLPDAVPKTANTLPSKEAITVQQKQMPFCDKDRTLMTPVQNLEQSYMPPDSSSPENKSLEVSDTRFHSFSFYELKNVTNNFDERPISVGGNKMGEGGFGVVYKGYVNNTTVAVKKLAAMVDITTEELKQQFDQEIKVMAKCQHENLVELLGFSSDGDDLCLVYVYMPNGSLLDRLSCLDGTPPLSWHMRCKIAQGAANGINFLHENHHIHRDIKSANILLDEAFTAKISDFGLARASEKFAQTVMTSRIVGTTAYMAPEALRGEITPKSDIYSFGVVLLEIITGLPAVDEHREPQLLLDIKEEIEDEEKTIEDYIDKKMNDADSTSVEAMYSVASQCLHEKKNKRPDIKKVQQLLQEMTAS
The assay can be described thus: biochemical.
Conditions: not given
`CC12CC(c3cn4cc(C(=O)Nc5cccn(C(F)F)c5=O)c(OC5CCC5)cc4n3)(CO1)C2` [Example 442, 7-Cyclobutoxy-N-(1-(difluoromethyl)-2-oxo-1,2-dihydropyridin-3-yl)-2-(1-methyl-2-oxabicyclo[2.1.1]hexan-4-yl)imidazo[1,2-a]pyridine-6-carboxamide] had a concentration for half-maximal inhibition (IC50) of 0.0002 µM.

For `CC(C)Oc1cc2nc(C34COC(C)(C3)C4)cn2cc1C(=O)Nc1ccnc2cccnc12` [Example 319, 7-Isopropoxy-2-(1-methyl-2-oxabicyclo[2.1.1]hexan-4-yl)-N-(1,5-naphthyridin-4-yl)imidazo[1,2-a]pyridine-6-carboxamide], the IC50 is 0.0016 µM.

Turning to `CC1(C)CC(Oc2cc3nc(C4CC4)cn3cc2C(=O)Nc2cccc(C(F)F)n2)C1` [Example 472, 2-Cyclopropyl-N-(6-(difluoromethyl)pyridin-2-yl)-7-(3,3-dimethylcyclobutoxy)imidazo[1,2-a]pyridine-6-carboxamide], the IC50 came to 0.0064 µM.

As to `Cn1ccc(NC(=O)c2cn3cc(C45COC(C)(C4)C5)nc3nc2OC2CCCC2)n1` [Example 285, 7-(Cyclopentyloxy)-N-(1-methyl-1H-pyrazol-3-yl)-2-(1-methyl-2-oxabicyclo[2.1.1]hexan-4-yl)imidazo[1,2-a]pyrimidine-6-carboxamide], the midpoint of inhibition, the IC50, lay at 0.006 µM.

As to `CC(C)Oc1cc2nc(C34COC(C)(C3)C4)cn2cc1C(=O)Nc1cnn2cc(C3CC3)cnc12` [Example 322, N-(6-cyclopropylpyrazolo[1,5-a]pyrimidin-3-yl)-7-isopropoxy-2-(1-methyl-2-oxabicyclo[2.1.1]hexan-4-yl)imidazo[1,2-a]pyridine-6-carboxamide], the midpoint of inhibition, the IC50, lay at 0.0019 µM.

`CC(C)Oc1cc2nc(C34COC(C)(C3)C4)c(F)n2cc1C(=O)Nc1cccn(C(F)F)c1=O` [Example 326, N-(1-(difluoromethyl)-2-oxo-1,2-dihydropyridin-3-yl)-3-fluoro-7-isopropoxy-2-(1-methyl-2-oxabicyclo[2.1.1]hexan-4-yl)imidazo[1,2-a]pyridine-6-carboxamide] had an IC50 of 0.0019 µM.

Take `CC(C)Oc1cc2nc([C@]34CC[C@H](C3)OC4)cn2cc1C(=O)Nc1ccn(C)n1` (single isomer, unassigned) [Example 581]: the IC50 stood at 0.0037 µM.

Regarding `COc1cc2nc(C3CCOCC3)cn2cc1C(=O)Nc1ccc(C)n(C)c1=O` [Example 182], 0.559 µM corresponded to half-maximal inhibition (IC50).

In turn, `CCOc1nc(C(=O)Nc2cccnc2OC)cn2cc([C@H]3CCOC3)nc12` (single isomer, unassigned) [Example 598] gave an IC50 of 0.0041 µM.

In the case of `Cc1cccc(NC(=O)c2cn3cc(C45COC(C)(C4)C5)nc3cc2OC(C)C)n1` [Example 259, 7-Isopropoxy-2-(1-methyl-2-oxabicyclo[2.1.1]hexan-4-yl)-N-(6-methylpyridin-2-yl)imidazo[1,2-a]pyridine-6-carboxamide], the half-inhibitory concentration (IC50) was 0.0005 µM.

`Cc1nc(C(=O)Nc2cccc(C(F)F)n2)cn2cc(C3CCOCC3)nc12` [Example 213]: half-maximal inhibition (IC50) was put at 0.0607 µM.

Compound `COc1cc2nc(C3CCOCC3)cn2cc1C(=O)Nc1ccc(O)nc1OC` [Example 188] came in with an IC50 of 0.326 µM.

In the case of `COc1ncccc1NC(=O)c1cn2cc(C3CCOCC3)nc2c(OC)n1` [Example 208], half-maximal inhibition (IC50) required 0.0209 µM.

As to `CC(C)Oc1nc2nc([C@@]34CC[C@@](C)(C3)OC4)cn2cc1C(=O)Nc1cccn(C)c1=O` (single isomer, unassigned) [Example 652], the IC50 came to 0.0005 µM.

In turn, `CCOc1nc(C(=O)Nc2cc(F)ccc2OC)cn2cc(C34COC(C)(C3)C4)nc12` [Example 484, 8-Ethoxy-N-(5-fluoro-2-methoxyphenyl)-2-(1-methyl-2-oxabicyclo[2.1.1]hexan-4-yl)imidazo[1,2-a]pyrazine-6-carboxamide] registered a 50% inhibitory concentration (IC50) of 0.0073 µM.

The compound `COc1cc2nc(C3CCOCC3)cn2cc1C(=O)Nc1cccc(Cl)c1F` [Example 114] gave an IC50 of 0.0153 µM.

As for `CCc1c(NC(=O)c2cn3cc(C4CCOCC4)nc3cc2OC)cnn1C` [Example 199], inhibition was half-maximal at 0.181 µM (IC50).

On to `COc1ccc(Cl)cc1NC(=O)c1cn2cc(C3CCOCC3)nc2cc1OC` [Example 112], for which inhibition was half-maximal at 0.514 µM (IC50).

Still in this assay, the particulars now being: IRAK4 Biochemical Assay (1 mM ATP, 2 h) IC50 (μM), 1 mM ATP, 2 h, 100 pM IRAK4.
The compound `CC(C)Oc1cc2nc(C3CCOCC3)cn2cc1C(=O)Nc1cccc(C(F)F)n1` [Example 92, N-(6-(difluoromethyl)pyridin-2-yl)-7-isopropoxy-2-(tetrahydro-2H-pyran-4-yl)imidazo[1,2-a]pyridine-6-carboxamide] displayed a 50% inhibitory concentration (IC50) of 0.0003 µM.

Regarding `CN1CCC(Oc2cc3nc(C4CC4)cn3cc2C(=O)Nc2cccc(C(F)F)n2)C1=O` (stereo not shown) [Example 469, 2-Cyclopropyl-N-(6-(difluoromethyl)pyridin-2-yl)-7-((1-methyl-2-oxopyrrolidin-3-yl)oxy)imidazo[1,2-a]pyridine-6-carboxamide], half-maximal inhibition (IC50) was put at 0.0412 µM.

As to `O=C(Nc1cccc(C(F)F)n1)c1cn2cc(C3CC3)nc2cc1OCC1CC(F)(F)C1` [Example 471, 2-Cyclopropyl-7-((3,3-difluorocyclobutyl)methoxy)-N-(6-(difluoromethyl)pyridin-2-yl)imidazo[1,2-a]pyridine-6-carboxamide], the 50% inhibitory concentration (IC50) was 0.0058 µM.

In turn, `CC(C)Oc1nc2nc(C34COC(C)(C3)C4)cn2cc1C(=O)Nc1cccc2c1OCC2` [Example 377, N-(2,3-dihydrobenzofuran-7-yl)-7-isopropoxy-2-(1-methyl-2-oxabicyclo[2.1.1]hexan-4-yl)imidazo[1,2-a]pyrimidine-6-carboxamide trifluoroacetate] had an IC50 of 0.0003 µM.

On to `COc1cccc(NC(=O)c2cn3cc(C45CC(C)(C4)OC54COC4)nc3cc2OC)n1` [Example 28], for which the half-maximal inhibitory concentration (IC50) was determined as 0.0969 µM.

For the compound `CCc1cccc(NC(=O)c2cn3cc(C4CC5(CCOC5)C4)nc3cc2OC)n1` (stereo not shown) [Example 62], the half-inhibitory concentration (IC50) is 0.0038 µM.

As for `CC12CC(c3cn4cc(C(=O)Nc5cccc(C(F)F)n5)c(OC5CC5)nc4n3)(CO1)C2` [Example 312, 7-Cyclopropoxy-N-(6-(difluoromethyl)pyridin-2-yl)-2-(1-methyl-2-oxabicyclo[2.1.1]hexan-4-yl)imidazo[1,2-a]pyrimidine-6-carboxamide trifluoroacetate], half-maximal inhibition (IC50) required 0.0021 µM.

`CCOc1nc(C(=O)Nc2cccc(C(F)F)n2)cn2cc(C3CCOCC3)nc12` [Example 207, N-[6-(difluoromethyl)-2-pyridyl]-8-ethoxy-2-tetrahydropyran-4-ylimidazo[1,2-a]pyrazine-6-carboxamide trifluoroacetate] returned an IC50 of 0.0147 µM.

Turning to `CC(C)Oc1nc2nc(C34COC(C)(C3)C4)cn2cc1C(=O)Nc1cnn(C)n1` [Example 365, 7-Isopropoxy-N-(2-methyl-2H-1,2,3-triazol-4-yl)-2-(1-methyl-2-oxabicyclo[2.1.1]hexan-4-yl)imidazo[1,2-a]pyrimidine-6-carboxamide trifluoroacetate], the half-inhibitory concentration (IC50) turned out to be 0.0128 µM.

Regarding `CC(C)Oc1cc2nc(C34CCC(C)(C3)OC4)cn2cc1C(=O)Nc1ccn(C(F)F)n1` (stereo not shown) [Example 504, N-(1-(difluoromethyl)-1H-pyrazol-3-yl)-7-isopropoxy-2-(1-methyl-2-oxabicyclo[2.2.1]heptan-4-yl)imidazo[1,2-a]pyridine-6-carboxamide], the half-inhibitory concentration (IC50) stood at 0.0018 µM.
